“Also recorded” adds a separate entry of the source.
Key:
Assay type in all cases: cell-based, human
[1] = system: Akt; experiment: Western blot of phosphorylated Akt / MDM2 in LNCaP cells in androgen-free medium; conditions: androgen-free medium 5 days then transfected 2 days
Text: FIG. 15. Proteins were extracted from untransfected LNCaP cells maintained in androgen free medium for 7 days (CS-FBS Control) or from 7-day androgen-free LNCaP cells that were transfected for 48 hrs with β-catenin siRNA (CS-FBS+beta-Cat siRNA) or dominant negative Tcf (CS-FBS+DN-Tcf) or PCDH-PC siRNA 181 (CS-FBS+PCDH-PC siRNA) or lamin siRNA (CS-FBS+lamin siRNA). Equal aliquots of protein were electrophoresed on a polyacrylamide gel and then blotted onto a PVDF filter to produce a Western blot. The same blot was probed with an antibody against Akt protein (top panel) or against phosphorylated Akt (ser 473) (second panel) or with an antibody against MDM2 protein (third panel) or phosphorylated MDM2 protein (bottom panel). […] The blockade of Akt phosphorylation by PCDH-PC siRNA could be involved in the process through which this molecule induces the death of prostate cancer cells under androgen-free conditions. […]
Preparation of cell extracts and western blots. Cells were harvested and protein extracts prepared, quantified and used to prepare Western blots as previously described (Example 1; Yang et al., 2005). […] Recombinant Wnt-1 protein (HA-tagged) was detected with anti-HA antibody (Clontech Inc., Mountain View, Calif.). Antibody binding to the Western blot was detected as previously described (Yang et al., 2005). […]

[2] = system: Tcf-sensitive reporter pTOP (wnt signaling); experiment: Tcf-sensitive pTOP luciferase reporter assay (wnt signaling) in LNCaP cells; conditions: 7 days in androgen-free medium
Text: FIGS. 5A-5C. siRNAs against PCDH-PC suppress PCDH-PC expression, TCF-mediated transcription and NE transdifferentiation in LNCaP cells grown in androgen-free medium. FIG. 5A. RNAs extracted from LNCaP cells grown in normal medium (Control) or in androgen-free medium (CS-FBS, None) were compared toRNAs from LNCaP cells grown in androgen-free medium transfected with siRNAs against PCDH-PC (181, 190 and 208) or siRNA against lamin by RT-PCR using primers specific for PCDH-PC (Top Panel) or β-actin (Bottom Panel). PCR reaction products were electrophoresed on agarose gels and were visualized after ethidium bromide staining under UV light. FIG. 5B. LNCaP cells cultured in normal medium (Control) were compared to LNCaP cells grown in androgen-free medium for 7 days without or with transfection with siRNA 181 against PCDH-PC or siRNA against lamin for expression of luciferase from the TCF-sensitive reporter pTOP for normalized luciferase activity. FIG. 5C. […]
Expression Vectors, Transfection Protocols and Luciferase/β-Glactosidase Assays. […] Luciferase activity in cell extracts was measured using the Luciferase Assay System of Promega, Inc. (Madison, Wis.). β-galactosidase activity was also measured in the same cell extracts using the β-galactosidase Enzyme Assay System of Promega, Inc. All experiments involving luciferase reporter vectors were done in triplicate for each point.

[3] = system: LNCaP cells; experiment: Flow cytometry of propidium iodide stained cells, sub-G0 peak (cell death); conditions: for dead cells (sub-G0 peak): LNCaP in androgen-free medium 5 days, then siRNA transfection a further 48 hrs
Protocol: FIG. 18. Selective killing of LNCaP cells grown in androgen-free medium by PCDH-PC siRNA. LNCaP cells grown in normal medium or in androgen-free medium (phenol red-free RPMI supplemented with CS-FBS) for 5 days were transfected with PCDH-PC siRNA (#181) or with lamin siRNA, as indicated for a further 48 hrs. Cells were collected, fixed and stained with propidium iodide and were analyzed by flow cytometry. Bars represent the % population of cells in the sub-G0 peak considered to be apoptotic. The bars are averages based on two measurements under each condition. No siRNAs were untransfected cells.
siRNAs and Transfection of Cultured Human Prostate Cancer Cells. Commercial siRNAs targeting human β-catenin and lamin A were purchased from Dharmacon, Inc. (Chicago, Ill.). Three different siRNAs targeting PCDH-PC were designed using the siRNA Target Finder software program available through Ambion, Inc. (Austin, Tex.). The anti-PCDH-PC siRNAs targeted sequences at position 3043-3062 (#181; SEQ ID NO:4; FIG. 29), 3098-3117 (#190; SEQ ID NO:6; FIG. 31) or 3345-3364 (#208; SEQ ID NO:7; FIG. 32) on the PCDH-PC mRNA. The 21 bp siRNAs were constructed using the 19 bp core sequences described above with 2 nucleotide UU overhangs and these siRNAs were produced and provided by Ambion, Inc. siRNAs were transfected or co-transfected (with other expression vectors as described) into LNCaP cells at 100 nM final concentrations using Lipofectamine 2000 transfection reagent (Invitrogen Life Technologies, Inc.) in serum-free medium as instructed by the manufacturer. 48 hrs after transfection, cells were harvested and extracted for protein or RNA as described below.

[4] = system: PCDH-PC; experiment: Western blot of myc-tagged PCDH-PC in LNCaP cells co-transfected with pPCDH-PC-myc and siRNA; conditions: siRNA 100 nM co-transfected with pPCDH-PC-myc, 48 hrs; listed as #181
Text: FIGS. 4A-4B. siRNAs against PCDH-PC suppress PCDH-PC expression and NE transdifferentiation of LNCaP cells. FIG. 4A. LNCaP cells were transfected with the pPCDH-PC-myc expression vector and were co-transfected with siRNA against human lamin or siRNAs 181, 190 or 208 designed to suppress PCDH-PC expression. A Western blot made against protein extracts from these cells were probed with anti-myc (Top Panel) to identify expression of the 110 kd PCDH myc-tagged protein, anti-β-actin (Middle Panel) or anti-human E-cadherin (Bottom Panel). FIG. 4B. A repeated experiment that includes control LNCaP cells (no transfection) or pCMV-PCDH-myc transfected LNCaP cells co-transfected with siRNAs against lamin or against PCDH-PC (181, 190 or 208). The Western blot was probed for NSE expression (Top Panel) or for β-actin expression (Bottom Panel).
Expression Vectors, Transfection Protocols and Luciferase/β-Glactosidase Assays. PCDH-PC cDNA was inserted into the mammalian expression vectors pcDNA3 (Invitrogen Life Technologies, Inc., Carlsbad, Calif.) or into pCMV-myc (BD Biosciences, Clontech, Inc., Palo Alto, Calif.) so that the PCDH-PC product generated from this vector (pPCDH-PC-myc) has a C-terminal myc tag. An expression vector containing cDNA encoding a mutated (stabilized) form of human β-catenin (Tetsu and McCormick, 1999) was used. A dominant-negative Tcf expression vector used was previously described (Chen et al., 2001). The Tcf-sensitive reporter vector, pTOP and a CMV-promoted β-galactosidase expression vector were obtained from Upstate Biotechnology, Inc. Transfections used for protein or RNA extractions were done in 35 cm^2 dishes with cells plated at 50% density 12-16 hrs prior. […] Luciferase activity in cell extracts was measured using the Luciferase Assay System of Promega, Inc. (Madison, Wis.). β-galactosidase activity was also measured in the same cell extracts using the β-galactosidase Enzyme Assay System of Promega, Inc. All experiments involving luciferase reporter vectors were done in triplicate for each point. […]

Substance: siRNA #181: 21 bp siRNA targeting PCDH-PC mRNA position 3043-3062, 19 bp core with UU overhangs (SEQ ID NO:4) (AAGCATTGAAGCACCAGTGAC; listed as DNA, further chemistry not given here)
- Akt phosphorylation (pAkt; and MDM2 phosphorylation) [1]: reduced
- induced luciferase expression from pTOP reporter (wnt signaling) [2]: completely suppressed
- selectivity of cell death induction, androgen-free versus normal medium ([3]; LNCaP): specific to cells grown in androgen free medium, not in normal medium
- dead cells (sub-G0 peak) ([3]; listed as #181): approximately 58%
- dead cells (sub-G0 peak) ([3]; listed as PCDH-PC siRNA): 58%
- dead cells (sub-G0 peak) ([3]; listed as siRNA against PCDH-PC): 58%
- cell death relative to untransfected cells or cells transfected with lamin siRNA ([3]; LNCaP, androgen-free medium 7 days): greater than 4 ×
- expression of myc-tagged PCDH-PC polypeptide [4]: suppressive effects; also recorded: most effective
